According to patent publication US20130260025A1, “Group 2 Imidazolate Formulations for Direct Liquid Injection” (AIR PRODUCTS AND CHEMICALS, INC., priority 2012, published 2013):

How the values were obtained:
[1] = Solubility of strontium imidazolate adducts in mesitylene; type: physicochemical
Source text: A fixed volume of the solution was then weighed. […] […].

[2] = Solubility of strontium imidazolate adducts in cyclooctane
Experimental: Solubility was determined by taking a weighed amount of solvent at room temperature, incrementally adding metal complex with mixing until not more could be dissolved then reweighing the resultant solution to permit the weight percentage of metal complex dissolved to be calculated. A fixed volume of the solution was then weighed. […] The moles of metal complex is then divided by the volume of weighed solution in liters to yield the molarity of the solution.

[3] = Thermogravimetric analysis (TGA)/differential scanning calorimetry (DSC); type: physicochemical
Experimental: Thermogravimetric analysis (TGA) of the complexes listed in Tables 1 and 2 were conducted whereby samples were suspended in a microbalance pan under a steady stream of nitrogen while being heated under a constant rate. Weight loss is measured as a function of temperature/time while a differential scanning calorimeter monitors exotherms (decomposition) or endotherms (phase change/melting or evaporative cooling).

[4] = saturated solution in mesitylene, room temperature
[5] = saturated solution in cyclooctane, room temperature

| Structure (SMILES) | Molarity of strontium complex [1, 4] | Wt % of strontium complex [1, 4] | Molarity of strontium complex [2, 5] | Wt % of strontium complex [2, 5] | Molarity of strontium complex [1] | Wt % of strontium complex [1] | Molarity of strontium complex [2] | Wt % of strontium complex [2] | times more soluble in mesitylene than parent complex [1] | TGA residual mass [3] | times more soluble in cyclooctane than parent complex [2] | temperature at which weight loss associated with loss of tetrahydrofuran significantly begins ([3]; TGA under nitrogen stream, constant heating rate, FIG. 7) |
| --- | --- | --- | --- | --- | --- | --- | --- | --- | --- | --- | --- | --- |
| CC(C)(C)c1nc(C(C)(C)C)c(C(C)(C)C)[n-]1.CC(C)(C)c1nc(C(C)(C)C)c(C(C)(C)C)[n-]1.COC(C)OC.[Sr+2] [Strontium bis(2,4,5-tri-tert-butylimidazolate)(1,1-dimethoxyethane)] | 0.13 M | 9.0 Wt % | 0.03 M | 2.1 Wt % | – | – | – | – | – | – | – | – |
| CC(C)(C)c1nc(C(C)(C)C)c(C(C)(C)C)[n-]1.CC(C)(C)c1nc(C(C)(C)C)c(C(C)(C)C)[n-]1.COCC(C)OC.[Sr+2] [Strontium bis(2,4,5-tri-tert-butylimidazolate)(1,2-dimethoxypropane)] | – | – | – | – | 0.093 M | 7.3 Wt % | 0.04 M | 2.8 Wt % | – | – | – | – |
| C1=CCOC1.CC(C)(C)c1nc(C(C)(C)C)c(C(C)(C)C)[n-]1.CC(C)(C)c1nc(C(C)(C)C)c(C(C)(C)C)[n-]1.[Sr+2] [Strontium bis(2,4,5-tri-tert-butylimidazolate)(2,5-dihydrofuran)] | – | – | – | – | – | 38 Wt % | 0.37 M | 24 Wt % | 9-13 times | 8.09% | 11-12 times | – |
| CC(C)(C)c1nc(C(C)(C)C)c(C(C)(C)C)[n-]1.CC(C)(C)c1nc(C(C)(C)C)c(C(C)(C)C)[n-]1.CC1CCOC1.[Sr+2] [Strontium bis(2,4,5-tri-tert-butylimidazolate)(3-methyltetrahydrofuran)] | – | – | – | – | 0.44 M | 28.8 Wt % | 0.05 M | 3.5 Wt % | 9-13 times | – | – | – |
| CC(C)(C)c1nc(C(C)(C)C)c(C(C)(C)C)[n-]1.CC(C)(C)c1nc(C(C)(C)C)c(C(C)(C)C)[n-]1.CN(C)CCN(C)C.[Sr+2] [Strontium bis(2,4,5-tri-tert-butylimidazolate)(tetramethylethlenediamine)] | 0.041 M | 3.3 Wt % | 0.02 M | 1.8 Wt % | – | – | – | – | – | – | – | – |
| C1CCOC1.CC(C)(C)c1nc(C(C)(C)C)c(C(C)(C)C)[n-]1.CC(C)(C)c1nc(C(C)(C)C)c(C(C)(C)C)[n-]1.[Sr+2] [Strontium bis(2,4,5-tri-tert-butylimidazolatee)(tetrahydrofuran)] | 0.6 M | 28.2 Wt % | 0.35 M | 23.6 Wt % | – | – | – | – | – | – | – | ≥ 100 °C |
